# Experimental data reported in the supplement of paper PMC5412046.
# Structures can show the parent of a compound that is named as a salt.
# Tested on: SB.msgc-1
# Test: AC50 for growth inhibition (viability) (log10 M); higher = less potent
# Details: SB.msgc-1 (sporadic gastric cancer)
# Method in brief: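 After 48 h with compound, plates received CellTiter-Glo for 30 min at room temperature and were read for luminescence on a ViewLux. The cells were patient-derived gastric cancer lines of hereditary or sporadic origin, plated at 500 cells in 5 μL medium per 1536 well and pinned with 23 nL compound in DMSO, at 11 threefold dilutions from a final 46 μM. For the log half-maximal activity concentration, DMSO-normalised viability was fitted with four parameters and only high-quality curve classes were kept.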
row,Compound,AC50 for growth inhibition (log10 M)
1,CC(C)C1=N[N](C\2=C1C(=O)N\C(=N2)CC3=CC=C(OCCO)C=C3)C4=C(Cl)C=CC=C4Cl,-6.88
2,NC(=O)c1ccc(-c2nc(-c3ccc4c(c3)OCCO4)c(-c3ccccn3)[nH]2)cc1 [D-4476],-4.73
3,COCCOc1ccc2c(c1)ncn2-c1ccc2cccc(N3CCC(N)CC3)c2n1,-5.23
4,CCOP(=O)(OCC)C(C)NC(=O)N(CCCl)N=O (configuration not stated) [Fotemustine],-5.13
5,O=C(C1CC1)N1CC[C@@H](Cn2c(-c3ccc(-c4ccc5occc5c4)cc3)nc3cnccc32)C1,-4.73
6,Cc1ccc(C(=O)c2cc(O)c(O)c([N+](=O)[O-])c2)cc1 [Tolcapone],-4.68
7,Cc1cc(-c2ccc(CC(=O)Nc3ccc(-c4cccnc4)cc3)cc2)ccn1 [Wnt-C59],-4.78
8,CCCCCCCN(CC)CCCC(O)c1ccc(NS(C)(=O)=O)cc1.CCCCCCCN(CC)CCCC(O)c1ccc(NS(C)(=O)=O)cc1.O=C(O)/C=C/C(=O)O (configuration not stated) [Ibutilide fumarate],-4.68
9,CC[P](CC)(CC)=[Au][S][C@@H]1OC(COC(C)=O)[C@@H](OC(C)=O)[C@H](OC(C)=O)C1OC(C)=O (some centres not stated) [Auranofin],-5.53
10,C[C@H](c1ccc(F)cc1CCCC(=O)O)N(c1cc(F)ccc1F)[S+](=O)([O-])c1ccc(Cl)cc1,-4.78
11,O=c1cc(O)c(Cl)c[nH]1 [Gimeracil],-4.68
12,CNC(=O)c1cc(COc2nnc(Nc3ccc(Cl)cc3)c3ccoc23)ccn1 [Telatinib],-4.78
13,CC(C)CC(N(C)C)C1(c2ccc(Cl)cc2)CCC1 (configuration not stated) [Sibutramine hydrochloride],-4.73
14,N#C[C@@H]1C[C@@H]2C[C@@H]2N1C(=O)[C@@H](N)C12CC3CC(CC(O)(C3)C1)C2 [Saxagliptin],-4.98
15,COC(=O)c1ccc2c(c1)NC(=O)/C2=C(\Nc1ccc(N(C)C(=O)CN2CCN(C)CC2)cc1)c1ccccc1 [Vargatef],-5.28
16,FC1=CC=C(SC/2=N/N3\C=N/C(=O)/C(=C3/C=C2)C4=C(Cl)C=CC=C4Cl)C(=C1)F [VX-745],-4.73
17,C[C@@H](N)c1ccc(C(=O)Nc2ccnc3[nH]ccc23)cc1,-4.78
18,CCNC(=O)Nc1ccc(Oc2ncnc(N)c2/C=N/OC)cc1Cl,-4.88
19,OCc1ccc(-c2ccc(-c3ccc(CO)s3)o2)s1 [RITA],-4.93
20,COc1ccc(N(C(=O)Oc2c(C)cccc2C)c2ccnc(Nc3ccc(N4CCN(C)CC4)cc3)n2)c(OC)c1,-5.43
21,OCCCNc1cc(-c2ccnc(Nc3cccc(Cl)c3)n2)ccn1,-6.68

row,Compound,AC50 for growth inhibition (log10 M)
1,NCCCC(N)(C(=O)O)C(F)F (configuration not stated) [Eflornithine Hydrochloride],-4.78
2,c1ccc(CNc2nc(N3CCOc4ccccc43)nc3c2CCCC3)cc1,-4.68
3,O=C(O)c1ccc(O)c2ncc(N3CCOCC3)cc12,-4.78
4,COc1cc(C)c(/C=C/C(C)=C/C=C/C(C)=C/C(=O)O)c(C)c1C [Acitretin],-4.73
5,CN1CCN(c2ccc([N+](=O)[O-])c3no[n+]([O-])c23)CC1,-4.63
6,NC(=O)c1cccc(-c2cc(Nc3ccc(OC(F)(F)F)cc3)ncn2)c1 [GNF 2],-4.73
7,COc1cc(N2CCN(C)CC2)ccc1Nc1nc(N)c(C(=O)c2c(Cl)cccc2Cl)s1,-5.18
8,C/C=C(/C(=C/C)c1ccc(O)cc1)c1ccc(O)cc1 [Dienestrol],-5.08
9,CC(C)[C@H](C(=O)Nc1ccc(C(=O)NO)cc1)c1ccccc1 [AR-42],-6.18
10,Cn1c(Nc2ccc(C(F)(F)F)cc2)nc2cc(Oc3ccnc(-c4nc(C(F)(F)F)c[nH]4)c3)ccc21 [CHIR-265],-6.68
11,CC(C(=O)O)c1cccc(C(=O)c2ccccc2)c1 (configuration not stated) [Ketoprofen],-5.03
12,FC1=CC=C(CN2\C=C/C=C(/C(=O)N[C@@H](COC3=CC4=C(NC(=O)N4)C=C3)C5=CC=CC=C5)C2=O)C=C1F [PDK1 inhibitor],-4.68
13,O=C(O)Cn1nnc(-c2cc(N3CCC(Oc4cc(F)ccc4Br)CC3)no2)n1 [MK-8245],-5.48
14,C[C@H](CCC(=O)O)[C@H]1CC[C@H]2[C@@H]3[C@@H](O)C[C@@H]4C[C@H](O)CC[C@]4(C)[C@H]3CC[C@]12C [Ursodiol],-5.43
15,N[S+](=O)([O-])OC[C@@H]1C[C@@H](n2ccc3c(N[C@H]4CCc5ccccc54)ncnc32)C[C@@H]1O [MLN-4924],-5.48
16,N\C1=N\C2=C(N=C[N]2COC(CO)CO)C(=O)N1 [Ganciclovir],-5.28
17,CCC1=C[C@@H]2CN(C1)Cc1c([nH]c3ccccc13)[C@@](C(=O)OC)(c1cc3c(cc1OC)N(C)[C@H]1[C@@](O)(C(=O)OC)[C@H](OC(C)=O)[C@]4(CC)C=CCN5CC[C@]31[C@@H]54)C2 [Vinorelbine],-7.08
18,Oc1ccc(C2CCN(c3ccnc4ccccc34)CC2)cc1O,-4.63
19,CCCC1OC2C[C@H]3[C@@H]4CCC5=CC(=O)C=C[C@]5(C)[C@H]4C(O)C[C@]3(C)[C@]2(C(=O)CO)O1 (some centres not stated) [Budesonide],-4.68
20,CC(C)c1noc(N2CCC(COc3ccc(-c4ccc([S+](C)(=O)[O-])cc4)nc3)CC2)n1,-5.23
21,O=C(O)c1ccc(-c2c[nH]c3ncc(-c4ccccc4)cc23)cc1C1CCCC1,-6.28

row,Compound,AC50 for growth inhibition (log10 M)
1,Cn1cnc([N+](=O)[O-])c1Sc1ncnc2nc[nH]c12 [Azathioprine],-5.43
2,O=C(Nc1nc2cccc(-c3ccc(CN4CC[S+](=O)([O-])CC4)cc3)n2n1)C1CC1 [GPLG-0634],-4.73
3,CC(C)(C)c1cnc(CSc2cnc(NC(=O)C3CCNCC3)s2)o1 [SNS-032],-7.18
4,COc1cccc(OC)c1-c1cc(C(=O)NC2(C(=O)O)C3CC4CC(C3)CC2C4)nn1-c1ccnc2cc(Cl)ccc12 (configuration not stated) [Meclinertant],-4.68
5,COc1cc(-c2nn(C3CCC(N4CCN(C(C)=O)CC4)CC3)c3ncnc(N)c23)ccc1NC(=O)c1cc2ccccc2n1C (configuration not stated),-5.28
6,CC(=O)Oc1cc2c(s1)CCN(C(C(=O)C1CC1)c1ccccc1F)C2.Cl (configuration not stated) [Prasugrel],-6.08
7,Clc3cc4CCc1cccnc1C(=C2/CCN(CC2)C(=O)OCC)\c4cc3 [Loratadine],-4.73
8,CC1=C2N=C([NH]C2=CC(=C1)N3CCOCC3)\C4=C(NC[C@@H](O)C5=CC=CC(=C5)Cl)\C=C/NC4=O,-5.78
9,CO[C@H]1/C=C/O[C@@]2(C)Oc3c(C)c(O)c4c(c3C2=O)C2=NC3(CCN(CC(C)C)CC3)NC2=C(NC(=O)/C(C)=C\C=C\[C@H](C)[C@H](O)[C@@H](C)[C@@H](O)[C@@H](C)[C@H](OC(C)=O)[C@@H]1C)C4=O [Rifabutin],-4.63
10,COC1CCC(CC1)N(C(=O)C2CCC(C)CC2)C3=C(SC(=C3)\C4=C\CCCC4)C(O)=O (configuration not stated) [VCH-916],-5.28
11,Cc1cc2c(C(C)C)c(O)c(O)c(C=O)c2c(O)c1-c1c(C)cc2c(C(C)C)c(O)c(O)c(C=O)c2c1O [(-)-Gossypol],-4.83
12,c1cc2c(cc1[C@H]1OC[C@H]3[C@@H]1CO[C@@H]3c1ccc3c(c1)OCO3)OCO2 [Sesamin],-5.33
13,CCC(C)N1\N=C/N(C1=O)C2=CC=C(C=C2)N3CCN(CC3)C4=CC=C(OC[C@H]5CO[C@@](C[N]6C=NC=N6)(O5)C7=CC=C(Cl)C=C7Cl)C=C4 (some centres not stated) [Itraconazole],-5.58
14,COc1cc(NCc2ccc3nc(N)nc(N)c3c2C)cc(OC)c1OC [Trimetrexate],-5.83
15,Cc1ccc(C(N)=O)cc1Nc1nccc(-c2cn(C(C)C)c3cnccc23)n1,-5.28
16,O=C(CS(=O)Cc1ccco1)NC/C=C\COc1cc(CN2CCCCC2)ccn1 (configuration not stated) [Lafutidine],-5.08
17,C[S+](=O)([O-])c1ccc(C(=O)Nc2ccc(Cl)c(-c3ccccn3)c2)c(Cl)c1 [Vismodegib],-4.78
18,CC(N[C@H]1CCCC[C@@H]1NC(=O)c1ccc(Cl)cc1)c1cccc2ccccc12 (some centres not stated) [Calhex 231],-5.93
19,N=C(CCSCc1csc(N=C(N)N)n1)N[S+](N)(=O)[O-] [Famotidine],-4.78
20,C[C@@H]1[C@H]\2[C@H](O)[C@H]3[C@H](N(C)C)\C(=C(C(N)=O)/C(=O)[C@@]3(O)\C(=C2C(=O)C4=C(O)C=CC=C14)O)O [Doxycycline],-4.68
